Data reported in PubChem BioAssay (NCI).
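Grown in 96-well plates, cells were treated for 48 hours with each compound at five concentrations. Insufficient inhibition: endpoint recorded as highest concentration tested. Definition used: TGI = concentration required for complete inhibition of growth.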

Tests used:
Experiment in all cases: growth of human tumour cells (NCI), 48 h
[1] = tested on: MOLT-4 leukemia
[2] = tested on: HCC-2998 colon
[3] = tested on: HCT-15 colon
[4] = tested on: CCRF-CEM leukemia
[5] = tested on: SF-539 CNS
[6] = tested on: OVCAR-4 ovarian
[7] = tested on: HOP-62 NSCLC
[8] = tested on: MALME-3M melanoma
[9] = tested on: SK-OV-3 ovarian
[10] = tested on: IGROV1 ovarian
[11] = tested on: NCI-H522 lung
[12] = tested on: SK-MEL-2 melanoma
[13] = tested on: SK-MEL-5 melanoma
[14] = tested on: RPMI-8226 leukemia
[15] = tested on: CAKI-1 renal
[16] = tested on: RXF 393 renal
[17] = tested on: U251 CNS
[18] = tested on: SNB-75 CNS
[19] = tested on: SK-MEL-28 melanoma
[20] = tested on: OVCAR-3 ovarian

| Compound | TGI [1] | TGI [2] | TGI [3] | TGI [4] | TGI [5] | TGI [6] | TGI [7] | TGI [8] | TGI [9] | TGI [10] | TGI [11] | TGI [12] | TGI [13] | TGI [14] | TGI [15] | TGI [16] | TGI [17] | TGI [18] | TGI [19] | TGI [20] |
| --- | --- | --- | --- | --- | --- | --- | --- | --- | --- | --- | --- | --- | --- | --- | --- | --- | --- | --- | --- | --- |
| CN(C)C(=O)OCOC(=O)N(C)C | > 100 µM | > 100 µM | > 100 µM | > 100 µM | > 100 µM | > 100 µM | > 100 µM | > 100 µM | > 100 µM | > 100 µM | > 100 µM | > 100 µM | > 100 µM | > 100 µM | > 100 µM | > 100 µM | > 100 µM | > 100 µM | > 100 µM | > 100 µM |
| COc1ccnc2c1C(=O)c1nc3ccccc3c3ccnc-2c13 | 7.32 µM | 1.52 µM | 0.145 µM | 1.35 µM | 33.7 µM | 2.65 µM | 5.34 µM | 1.3 µM | 0.645 µM | 0.704 µM | 0.262 µM | 4.11 µM | 0.437 µM | 0.526 µM | 0.6 µM | 0.86 µM | 0.61 µM | 0.589 µM | 7.37 µM | > 100 µM |
| CCCCN1C=CN2c3nc4cc(C)c(C)cc4n3C(C(=O)OC)=C(C(=O)OC)C12 (configuration not stated) | > 100 µM | > 100 µM | > 100 µM | > 100 µM | > 100 µM | > 100 µM | > 100 µM | > 100 µM | > 100 µM | > 100 µM | > 100 µM | > 100 µM | > 100 µM | > 100 µM | > 100 µM | > 100 µM | > 100 µM | > 100 µM |  | > 100 µM |
| CN(C)C(=O)NCCN1CCCCCc2ccccc21 | > 100 µM | > 100 µM | > 100 µM | > 100 µM | > 100 µM | > 100 µM | > 100 µM | > 100 µM | > 100 µM | > 100 µM | > 100 µM | > 100 µM | 71.9 µM | > 100 µM | > 100 µM | > 100 µM | > 100 µM |  | > 100 µM | > 100 µM |
| O=c1c(-c2ccccc2)c(SCCCN2CCN(c3cccc(Cl)c3)CC2)n(-c2ccccc2)c(=S)n1-c1ccccc1 | > 100 µM | > 100 µM | > 100 µM | > 100 µM | > 100 µM | > 100 µM | > 100 µM | > 100 µM | > 100 µM | > 100 µM | > 100 µM | > 100 µM | > 100 µM | > 100 µM | > 100 µM | > 100 µM | > 100 µM | > 100 µM | > 100 µM | > 100 µM |
| CCOC(=O)CC1CCN(C(=O)c2ccccc2)C2Cc3c([nH]c4ccccc34)C12C[N+](=O)[O-] (configuration not stated) | > 100 µM |  | > 100 µM | 51.3 µM | > 100 µM | > 100 µM | > 100 µM | > 100 µM | > 100 µM | > 100 µM | > 100 µM | > 100 µM | > 100 µM |  | > 100 µM | > 100 µM | > 100 µM | > 100 µM | > 100 µM |  |
| COC(=O)c1ccc(/C=C2\N=C(C)OC2=O)cc1 | > 100 µM | > 100 µM | > 100 µM | > 100 µM | > 100 µM | > 100 µM | > 100 µM |  | > 100 µM | > 100 µM | > 100 µM |  | > 100 µM | > 100 µM | > 100 µM |  | > 100 µM | > 100 µM | > 100 µM | > 100 µM |
